In EP0932613B1, “BLOCKING EXPRESSION OF VIRULENCE FACTORS IN S. AUREUS” (NEW YORK UNIVERSITY, priority 1996, dated 2005):
Where a SMILES comes first, the peptide text is derived from it. Bridges are numbered along the chain shown (N, C = ends).

Columns and labels:
RNAIII transcription [1] = assay: Effect of S. lugdunensis pheromone on RNAIII transcription of various S. aureus strains (Northern blot); type: cell-based; details: 37°C for 30 minutes; strains grown to 60 Klett units for inhibition assays; Figures 4A and 4B
Protocol: The purified S. lugdunensis pheromone was then analyzed for its ability activate and inhibit RNAIII transcription of various S. aureus strains. S. aureus strains were grown to 30 Klett units (for activation assays) and to 60 Klett units (for inhibition assays). The purified S . lugdunensis pheromone was added and the mixtures were incubated at 37°C for 30 minutes. Whole cell lysates were prepared from these cultures and analyzed by Northern blot hybridization using a RN6390B RNAIII-specific probe.

agr locus = details: PNAS 92:12055-12059 (1995); cited from earlier work
RNAIII transcription [2] = assay: RNAIII transcription activation/inhibition assay (Ji et al. 1995), strain RN6390B; type: cell-based; details: purified peptide; S. aureus strain RN6390B; Figure 3
Protocol: (§1) The purified activator peptide was then analyzed for its ability activate and inhibit RNAIII transcription of S. aureus strains RN6390B, RN6607 and RN8463, as described in Ji, G., et al. PNAS USA 92:12055-12059 (1995).
(§2) The purified peptide were then analyzed for their ability activate and inhibit RNAIII transcription of S. aureus strains RN6390B, RN6607 and RN8463, as described in Ji, G., et al. PNAS USA 92:12055-12059 (1995).

RNAIII transcription [3] = assay: RNAIII transcription activation/inhibition assay (Ji et al. 1995), strain RN8463; type: cell-based; details: purified peptide; S. aureus strain RN8463; Figure 3
Protocol: as §1, §2

RNAIII transcription [4] = assay: RNAIII transcription activation/inhibition assay (Ji et al. 1995), strain RN6607; type: cell-based; details: purified peptide; S. aureus strain RN6607; Figure 3
Protocol: as §1, §2

SMILES	S. aureus strains tested in which the agr response is inhibited (RNAIII transcription [1])	expression of the agr locus (agr locus)	effect on RNAIII transcription (RNAIII transcription [2])	effect on RNAIII transcription (RNAIII transcription [3])	effect on RNAIII transcription (RNAIII transcription [4])
CC[C@H](C)[C@H](NC(=O)[C@@H](N)CC(=O)O)C(=O)N[C@H]1CSC(=O)[C@H](Cc2ccccc2)NC(=O)[C@H](Cc2ccc(O)cc2)NC(=O)[C@H](C)NC(=O)[C@H](CC(N)=O)NC1=O [S. lugdunensis pheromone, Asp-Ile-Cys-Asn-Ala-Tyr-Phe] (H-DICNAYF; thioester 3-C)	5 of 6				
CC[C@H](C)[C@@H]1NC(=O)[C@H](Cc2ccccc2)NC(=O)[C@H](CC(=O)O)NC(=O)[C@@H](NC(=O)[C@@H](NC(=O)[C@H](CO)NC(=O)[C@@H](N)Cc2ccc(O)cc2)[C@@H](C)O)CSC(=O)[C@H](CCSC)NC1=O [activator peptide, Tyr-Ser-Thr-Cys-Asp-Phe-Ile-Met] (H-YSTCDFIM; thioester 4-C)		activate	activator effect	inhibitor effect	inhibitor effect
CC(C)C[C@@H]1NC(=O)[C@H](CO)NC(=O)[C@H](CO)NC(=O)[C@@H](NC(=O)[C@H](C)NC(=O)[C@H](CC(N)=O)NC(=O)[C@@H](NC(=O)CN)C(C)C)CSC(=O)[C@H](Cc2ccccc2)NC1=O [peptide from RN6607, Gly-Val-Asn-Ala-Cys-Ser-Ser-Leu-Phe] (H-GVNACSSLF; thioester 5-C)			inhibitor effect	inhibitor effect	activator effect
CC[C@H](C)[C@H](NC(=O)[C@@H](N)Cc1ccc(O)cc1)C(=O)N[C@@H](CC(N)=O)C(=O)N[C@H]1CSC(=O)[C@H](CC(C)C)NC(=O)[C@H](CC(C)C)NC(=O)[C@H](Cc2ccccc2)NC(=O)[C@H](CC(=O)O)NC1=O [peptide from RN8463, Tyr-Ile-Asn-Cys-Asp-Phe-Leu-Leu] (H-YINCDFLL; thioester 4-C)			inhibitor effect	activator effect	inhibitor effect
